Laboratory results reported in patent US20190133968A1, “Applications of benzophenones in preparation of drug” (SHANXI MEDICAL UNIVERSITY, priority 2016, published 2019).

Tested on: DN rats
Assay: type II diabetic nephropathy (DN) rat model (high-sugar high-fat diet + streptozocin)
Format: in vivo, SD (Sprague Dawley) rats
Details: for BUN / CREA / Glycated hemoglobin / Urinary protein / mALB (microalbumin in urine) / ICAM-1 / IL-1β / IL-6 / MDA / NF-κB / SOD / T-AOC / TGF-β1 / TNF-α / VCAM-1 / Glucose (GLU) / HDL-C / LDL-C / TC / TG / UA / Kidney coefficient: gavage, 6 weeks; for Urinary protein / mALB (microalbumin in urine): 6-hour urine; for ICAM-1 / IL-1β / IL-6 / MDA / NF-κB / SOD / T-AOC / TGF-β1 / TNF-α / VCAM-1: renal tissues; for Glucose (GLU) / HDL-C / LDL-C / TC / TG / UA: serum; for Kidney coefficient: weights of two kidneys/body weight
Description: The solid dispersions are prepared through a solvent method, comprising steps of: respectively precisely weighing LM49, PVPK30 and tween80 with a weight ratio of 1:5:1, and A8, PVPK30 and tween80 with a weight ratio of 1:4:1; dissolving with appropriate absolute ethyl alcohol, continuously stirring, and uniformly mixing; placing on the water bath at 60° C., evaporating and removing the absolute ethyl alcohol, and obtaining a viscous material; placing in the freezer at −20° C., and freezing for 2 hours; taking out from the freezer, then placing in the vacuum drying oven, and drying for 24 hours; after becoming embrittlement, smashing and sieving with a sieve of 80 meshes, and then placing in the dryer for storage.
The healthy adult male SD rats (having a weight of 180-220 g) are fed with the high-sugar and high-fat diet for 4 weeks; the rats are fasting overnight; and streptozocin (STZ) of 40 mg/kg is intraperitoneally injected into the rats. The rats of normal control group are injected with the sodium citrate buffer of same volume; 72 hours later, the rats are fasting for 12 hours. […] During the administration period, the successfully established model rats are still fed with the high-sugar and high-fat diet, while the rats of the normal control group are fed with the normal diet.
After administration for 6 weeks, 6-hour urine of the rats is collected with the metabolism cage.
The rats are fasting overnight and anesthetized intraperitoneally, then the abdominal aorta blood thereof is drawn for measuring the related indexes. The two kidneys of each rat are washed with the normal saline; weights of the kidneys are recorded; and the kidney coefficient (weights of two kidneys/body weight) is calculated. The renal tissues (comprising the glomerulus and renal tubules) at the same part of the left kidney are cut lengthwise and immersed in the 10% neutral formalin for pathomorphology analysis, and the other parts of the left kidney are used for biochemical index measurement; the right kidney is used for mechanism research and stored in the freezer at −80° C.
After successfully establishing the model rats, expect the normal control group (ten rats), the remaining rats are randomly divided into eight groups, wherein each group has twelve rats. The eight groups are respectively the model group, the LM49 solid dispersion low-dose group (with the drug concentration of 3 mg/kg), the LM49 solid dispersion medium-dose group (with the drug concentration of 9 mg/kg), the LM49 solid dispersion high-dose group (with the drug concentration of 27 mg/kg), the A8 solid dispersion low-dose group (with the drug concentration of 3 mg/kg), the A8 solid dispersion medium-dose group (with the drug concentration of 9 mg/kg), the A8 solid dispersion high-dose group (with the drug concentration of 27 mg/kg), and the captopril control group (with the drug concentration of 15 mg/kg).
Administration Way: By Gavage.
The rats of the normal control group and the model group are administrated with the normal saline of 1.0 ml/100 g; the rats of the positive control group, the LM49 solid dispersion high-dose, medium-dose and low-dose groups and the A8 solid dispersion high-dose, medium-dose and low-dose groups are respectively administrated with the drugs of different concentrations, and the administration volume is 1.0 ml/100 g.
The solid dispersions are dissolved by the normal saline; and the rats of the positive control group are administrated with the 0.5% CMC-Na (sodium carboxymethyl cellulose) suspension.
The rats are administrated seven days a week, for totally six weeks.
The IBM SPSS Statistics 20 software is used for data processing, and the data is represented in x±s. The one-way analysis of variance (ANOVA) is adopted for comparison among the groups. According to the homogeneity test results of variance, if the variance is equal, the LSD (least significant difference) test is adopted; if the variance is unequal, the Dunnett's T3 test is adopted. […]

## O=C(c1cc(Br)ccc1O)c1cc(O)c(O)cc1Br [LM49, 2,5′-dibromo-4,5,2′-trihydroxyldiphenylmethanone]
DN rats, high-dose 27 mg/kg
  BUN: 10.66 ± 2.52 mmol/L
  CREA: 55.12 ± 4.05 µmol/L
  Glycated hemoglobin: 8.10 ± 1.50%
  Urinary protein: 2.82 ± 0.54^□□▴◯● mg/6 h
  mALB (microalbumin in urine): 52.22 ± 7.46^□□▴▴ μg/6 h
  ICAM-1: 282.88 ± 59.07 pg/mgprog
  IL-1β: 121.69 ± 16.12 pg/mgprog
  IL-6: 119.09 ± 11.51^□ pg/mgprog
  MDA: 1.16 ± 0.19 nmol/mgprog
  NF-κB: 215.39 ± 43.61^□□▴▴◯◯ pg/mgprog
  SOD: 4.06 ± 0.78 U/mgprog
  T-AOC: 1.37 ± 0.31 U/mgprog
  TGF-β1: 30.58 ± 5.83^□□▴▴ pg/mgprot
  TNF-α: 279.29 ± 41.89^□ pg/mgprog
  VCAM-1: 26.85 ± 5.63 pg/mgprog
  Glucose (GLU): 10.73 ± 2.89^□□▴◯ mmol/L
  HDL-C: 1.17 ± 0.24 mmol/L
  LDL-C: 1.61 ± 0.54^□□ mmol/L
  TC: 3.00 ± 0.79^□□ mmol/L
  TG: 0.54 ± 0.13^□□ mmol/L
  UA: 29.41 ± 7.23^□□●● μmol/L
  Kidney coefficient: 1.00 ± 0.09%
DN rats, kidney pathology (HE, Masson staining)
  lesions of the renal tissues: effectively reduce the lesions of the renal tissues
DN rats, low-dose 3 mg/kg
  BUN: 11.59 ± 2.78 mmol/L
  CREA: 54.11 ± 3.50 µmol/L
  Glycated hemoglobin: 9.01 ± 0.61%
  Urinary protein: 5.81 ± 1.42^□□ mg/6 h
  mALB (microalbumin in urine): 143.47 ± 33.28^□□●● μg/6 h
  ICAM-1: 384.02 ± 100.59 pg/mgprog
  IL-1β: 158.77 ± 43.38 pg/mgprog
  IL-6: 195.42 ± 2.34 pg/mgprog
  MDA: 1.65 ± 0.25 nmol/mgprog
  NF-κB: 2415.59 ± 515.30 pg/mgprog
  SOD: 5.66 ± 1.87 U/mgprog
  T-AOC: 1.52 ± 0.58 U/mgprog
  TGF-β1: 100.46 ± 25.56 pg/mgprot
  TNF-α: 573.35 ± 150.75 pg/mgprog
  VCAM-1: 39.34 ± 10.56 pg/mgprog
  Glucose (GLU): 19.94 ± 6.09^□□ mmol/L
  HDL-C: 1.27 ± 0.12 mmol/L
  LDL-C: 1.90 ± 0.54^□□ mmol/L
  TC: 3.28 ± 0.59^□□ mmol/L
  TG: 0.38 ± 0.10^□□ mmol/L
  UA: 26.01 ± 6.54^□□●● μmol/L
  Kidney coefficient: 1.08 ± 0.09%
DN rats, medium-dose 9 mg/kg
  BUN: 10.97 ± 3.01 mmol/L
  CREA: 55.25 ± 1.01 µmol/L
  Glycated hemoglobin: 8.59 ± 0.85%
  Urinary protein: 5.29 ± 0.61^□□ mg/6 h
  mALB (microalbumin in urine): 125.38 ± 23.67^□□● μg/6 h
  ICAM-1: 334.79 ± 55.46 pg/mgprog
  IL-1β: 146.20 ± 16.12 pg/mgprog
  IL-6: 168.44 ± 30.33 pg/mgprog
  MDA: 1.92 ± 0.34 nmol/mgprog
  NF-κB: 1017.81 ± 239.12^□▴●● pg/mgprog
  SOD: 5.33 ± 1.01 U/mgprog
  T-AOC: 1.93 ± 0.43 U/mgprog
  TGF-β1: 53.60 ± 11.60^□● pg/mgprot
  TNF-α: 436.04 ± 84.54 pg/mgprog
  VCAM-1: 34.76 ± 5.04 pg/mgprog
  Glucose (GLU): 18.58 ± 2.71^□□ mmol/L
  HDL-C: 1.16 ± 0.21 mmol/L
  LDL-C: 1.51 ± 0.48^□□ mmol/L
  TC: 2.71 ± 0.49^□□ mmol/L
  TG: 0.30 ± 0.11^□□ mmol/L
  UA: 25.63 ± 5.83^□□●● μmol/L
  Kidney coefficient: 1.09 ± 0.14%
Overall summary in words
  effect on resisting the DN of rats: obvious effect on resisting the DN of rats
